Source: ChEMBL document CHEMBL3352581, “Structure-activity relationships of non-opioid [des-Arg(7)]-dynorphin A analogues for bradykinin receptors” (Bioorg Med Chem Lett, 2014)
Where a SMILES comes first, the peptide text is derived from it. [ ]: non-standard residue; d: D form. Nle = CCCC[C@H](N)C(=O)O

Columns and labels:
[1] = Displacement of [3H]DALKD from bradykinin receptor in rat brain membranes by competition assay at pH 7.4; type: cell membranes, Membrane
[2] = Retention time of the compound by HPLC method; type: physicochemical
[3] = Displacement of [3H]DALKD from bradykinin receptor in rat brain membranes by competition assay; type: cell membranes, Membrane
[4] = Displacement of [3H]DALKD from bradykinin receptor in rat brain membranes by competition assay at pH 6.8; type: cell membranes, Membrane

Compound	IC50 [1] [nM]	Retention_time [2] [min]	IC50 [3] [nM]	pIC50 [3]	pIC50 [4]	pIC50 [1]	IC50 [4] [nM]
CC[C@H](C)[C@H](NC(=O)[C@H](CCCNC(=N)N)NC(=O)[C@H](CC(C)C)NC(=O)[C@@H](N)Cc1ccccc1)C(=O)N[C@@H](CCCNC(=N)N)C(=O)N1CCC[C@H]1C(=O)N[C@@H](CCCCN)C(=O)O	190						
CCCC[C@H](NC(=O)[C@@H](N)Cc1ccccc1)C(=O)N[C@@H](CCCNC(=N)N)C(=O)N[C@H](C(=O)N[C@@H](CCCNC(=N)N)C(=O)N1CCC[C@H]1C(=O)N[C@@H](CCCCN)C(=O)O)[C@@H](C)CC		10.5					
CCCC[C@H](NC(=O)[C@H](CCCNC(=N)N)NC(=O)[C@H](CC(C)C)NC(=O)[C@@H](N)Cc1ccccc1)C(=O)N[C@@H](CCCNC(=N)N)C(=O)N1CCC[C@H]1C(=O)N[C@@H](CCCCN)C(=O)O (H-FLR[Nle]RPK-OH)		11.4	91	7.04			
CCCC[C@H](NC(=O)[C@H](CCCNC(=N)N)NC(=O)[C@H](CCCC)NC(=O)[C@@H](N)Cc1ccccc1)C(=O)N[C@@H](CCCNC(=N)N)C(=O)N1CCC[C@H]1C(=O)N[C@@H](CCCNC(=N)N)C(=O)O (H-F[Nle]R[Nle]RPR-OH)			87	7.06			
CC[C@H](C)[C@H](NC(=O)[C@H](CCCNC(=N)N)NC(=O)[C@@H](N)CC(C)C)C(=O)N[C@@H](CCCNC(=N)N)C(=O)O (H-LRIR-OH)		7			5.66	5.03	
CCCC[C@H](NC(=O)[C@H](CCCCN)NC(=O)[C@@H]1CCCN1C(=O)[C@H](CCCCN)NC(=O)[C@H](CCCC)NC(=O)[C@H](CCCCN)NC(=O)[C@@H](N)CCCC)C(=O)N[C@@H](CCCCN)C(=O)O (H-[Nle]K[Nle]KPK[Nle]K-OH)			91	7.04			
H-FLARIRPK-OH		11	260	6.58			
H-FLRAIRP-OH		10.3	740	6.13			
H-FLRIR-OH		9.6			6.12	5.67	
H-FLRIRPKLK-OH		9.7			7.2	6.95	
H-FLRIRRPK-OH			74	7.13			
H-GFLRIR-OH		8.2			6.56	6.21	
H-GFLRIRPK-OH		9.5				6.88	
H-GFLRIRPKLK-OH		10.4			7.58	7.39	
H-GGFLRIRPKLK-OH		10.4			7.39		
H-LARIRPKLK-OH		9.2		6.99			
H-LRAIRPKLK-OH		9.2		6.91			
H-LRIRPK-OH		6.3			6.71	6.74	
H-LRIRPKLK-OH	68				7.52	7.17	30
